Reference: PubChem BioAssay AID1845219 (Molecular Pharmacology Branch, DTP, NCI, 2023)

System: SYO-1 tumor spheroids, viability % test/control
Test: Anticancer human tumor SYO-1 cell line growth inhibition;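 also: spheroids exposed to agents for 7 days before viability read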;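 as to viability, T/C: 100% = DMSO vehicle control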
Conditions: spheroids with HUVEC and MSC; for IC50: curve of first compound; for viability, T/C: stronger effect = lower value
How it was run: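 Complex tumor spheroids combined malignant cells with endothelial cells and mesenchymal stem cells. DNA-damaging drugs and DNA repair inhibitors were tested alone and in combination, at half-log dilutions down from clinical Cmax (top 10 microM if Cmax unknown), 0.25% DMSO final.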

[1] = second compound 1 µM, first compound 0.00949 µM
[2] = second compound 1 µM, first compound 0.03 µM
[3] = second compound 1 µM, first compound 0.0949 µM
[4] = second compound 1 µM, first compound 0.3 µM
[5] = second compound 1 µM, first compound 0.949 µM
[6] = second compound 1 µM, first compound 3 µM
[7] = second compound 3.16 µM, first compound 0.00949 µM
[8] = second compound 3.16 µM, first compound 0.03 µM
[9] = second compound 3.16 µM, first compound 0.0949 µM
[10] = second compound 3.16 µM, first compound 0.3 µM
[11] = second compound 3.16 µM, first compound 0.949 µM
[12] = second compound 3.16 µM, first compound 3 µM
[13] = second compound 10 µM, first compound 0.00949 µM
[14] = second compound 10 µM, first compound 0.03 µM
[15] = second compound 10 µM, first compound 0.0949 µM
[16] = second compound 10 µM, first compound 0.3 µM
[17] = second compound 10 µM, first compound 0.949 µM
[18] = second compound 10 µM, first compound 3 µM
[19] = second compound 31.6 µM, first compound 0.00949 µM
[20] = second compound 31.6 µM, first compound 0.03 µM
[21] = second compound 31.6 µM, first compound 0.0949 µM
[22] = second compound 31.6 µM, first compound 0.3 µM
[23] = second compound 31.6 µM, first compound 0.949 µM
[24] = second compound 31.6 µM, first compound 3 µM
[25] = second compound 100 µM, first compound 0.00949 µM
[26] = second compound 100 µM, first compound 0.03 µM
[27] = second compound 100 µM, first compound 0.0949 µM
[28] = second compound 100 µM, first compound 0.3 µM
[29] = second compound 100 µM, first compound 0.949 µM
[30] = second compound 100 µM, first compound 3 µM

Compound | IC50 (second compound 1 µM) [nM] | IC50 (second compound 3.16 µM) [nM] | IC50 (second compound 10 µM) [nM] | IC50 (second compound 31.6 µM) [nM] | IC50 (second compound 100 µM) [nM] | viability, T/C [1] [%] | viability, T/C [2] [%] | viability, T/C [3] [%] | viability, T/C [4] [%] | viability, T/C [5] [%] | viability, T/C [6] [%] | viability, T/C [7] [%] | viability, T/C [8] [%] | viability, T/C [9] [%] | viability, T/C [10] [%] | viability, T/C [11] [%] | viability, T/C [12] [%] | viability, T/C [13] [%] | viability, T/C [14] [%] | viability, T/C [15] [%] | further results
CNCc1ccc(-c2cc(-c3nc(-c4ccc(S(=O)(=O)C(C)C)cc4)cnc3N)on2)cc1 + Cn1nnc2c(C(N)=O)ncn2c1=O | 145 | 163 | 147 | 80.8 | 47.6 | 105 | 98.7 | 77.6 | 2.58 | 0.22 | 0.09 | 105 | 103 | 91.6 | 2.75 | 0.12 | 0.09 | 107 | 99 | 79.6 | viability, T/C [16]: 1.77%; viability, T/C [17]: 0.13%; viability, T/C [18]: 0.1%; viability, T/C [19]: 111%; viability, T/C [20]: 106%; viability, T/C [21]: 40.9%; viability, T/C [22]: 1.76%; viability, T/C [23]: 0.23%; viability, T/C [24]: 0.11%; viability, T/C [25]: 107%; viability, T/C [26]: 77.2%; viability, T/C [27]: 9.17%; viability, T/C [28]: 1.95%; viability, T/C [29]: 0.23%; viability, T/C [30]: 0.18%
Cc1sc2c(c1C)C(c1ccc(Cl)cc1)=NC(CC(=O)Nc1ccc(O)cc1)c1nnc(C)n1-2 (stereo not given) + Cn1nnc2c(C(N)=O)ncn2c1=O | 64.2 | 63.2 | 59.2 | 53.5 | 26.1 | 93.6 | 89.6 | 29.7 | 1.14 | 0.56 | 0.57 | 93.6 | 89.3 | 28.6 | 1.02 | 0.71 | 0.61 | 94.3 | 91.3 | 21.4 | viability, T/C [16]: 1.06%; viability, T/C [17]: 0.76%; viability, T/C [18]: 0.54%; viability, T/C [19]: 101%; viability, T/C [20]: 84.8%; viability, T/C [21]: 15.5%; viability, T/C [22]: 1.03%; viability, T/C [23]: 0.85%; viability, T/C [24]: 0.62%; viability, T/C [25]: 91.8%; viability, T/C [26]: 44.3%; viability, T/C [27]: 1.77%; viability, T/C [28]: 1.29%; viability, T/C [29]: 0.88%; viability, T/C [30]: 0.73%
Cn1ncnc1[C@H]1c2n[nH]c(=O)c3cc(F)cc(c23)N[C@@H]1c1ccc(F)cc1 + Cn1nnc2c(C(N)=O)ncn2c1=O | 16.3 | 12.8 | < 9.49 | < 9.49 | < 9.49 | 79.6 | 16.8 | 4.52 | 2.53 | 1.69 | 1.94 | 65 | 7.02 | 2.83 | 2.28 | 2.09 | 1.5 | 4.61 | 2.33 | 2.35 | viability, T/C [16]: 1.79%; viability, T/C [17]: 1.63%; viability, T/C [18]: 2.1%; viability, T/C [19]: 2.52%; viability, T/C [20]: 2.5%; viability, T/C [21]: 2.35%; viability, T/C [22]: 1.86%; viability, T/C [23]: 2%; viability, T/C [24]: 1.4%; viability, T/C [25]: 2.64%; viability, T/C [26]: 2.03%; viability, T/C [27]: 2.06%; viability, T/C [28]: 2.04%; viability, T/C [29]: 1.62%; viability, T/C [30]: 1.71%
